Test results: patent US7445641B1, “Biomaterials modified with superoxide dismutase mimics” (priority 1999, dated 2008)

Legend:
[1] = Stopped-flow kinetic analysis of superoxide dismutation; assay type: biochemical; design: kcat pH 8.1 / kcat pH 7.4: unit not given here
Source text: Stopped-flow kinetic analysis is an accurate and direct method for quantitatively monitoring the decay rates of superoxide in water.
For the attainment of consistent and accurate measurements all reagents were biologically clean and metal-free. To achieve this, all buffers (Calbiochem) were biological grade, metal-free buffers and were handled with utensils which had been washed first with 0.1N HCl, followed by purified water, followed by a rinse in a 10^−4 M EDTA bath at pH 8, followed by a rinse with purified water and dried at 65° C. for several hours. Dry DMSO solutions of potassium superoxide (Aldrich) were prepared under a dry, inert atmosphere of argon in a Vacuum Atmospheres dry glovebox using dried glassware. The DMSO solutions were prepared immediately before every stopped-flow experiment. A mortar and pestle were used to grind the yellow solid potassium superoxide (~100 mg). The powder was then ground with a few drops of DMSO and the slurry transferred to a flask containing an additional 25 ml of DMSO. The resultant slurry was stirred for ½ h and then filtered. This procedure gave reproducibly ~2 mM concentrations of superoxide in DMSO. These solutions were transferred to a glovebag under nitrogen in sealed vials prior to loading the syringe under nitrogen. It should be noted that the DMSO/superoxide solutions are extremely sensitive to water, heat, air, and extraneous metals. A fresh, pure solution has a very slight yellowish tint.
Water for buffer solutions was delivered from an in-house deionized water system to a Barnstead Nanopure Ultrapure Series 550 water system and then double distilled, first from alkaline potassium permanganate and then from a dilute EDTA solution. For example, a solution containing 1.0 g of potassium permanganate, 2 liters of water and additional sodium hydroxide necessary to bring the pH to 9.0 were added to a 2-liter flask fitted with a solvent distillation head. This distillation will oxidize any trace of organic compounds in the water. The final distillation was carried out under nitrogen in a 2.5-liter flask containing 1500 ml of water from the first still and 1.0×10^−6 M EDTA. This step will remove remaining trace metals from the ultrapure water. To prevent EDTA mist from volatilizing over the reflux arm to the still head, the 40-cm vertical arm was packed with glass beads and wrapped with insulation. This system produces deoxygenated water that can be measured to have a conductivity of less than 2.0 nanomhos/cm^2.
The stopped-flow spectrometer system was designed and manufactured by Kinetic Instruments Inc. (Ann Arbor, Mich.) and was interfaced to a MAC IICX personal computer. The software for the stopped-flow analysis was provided by Kinetics Instrument Inc. and was written in QuickBasic with MacAdios drivers. Typical injector volumes (0.10 ml of buffer and 0.006 ml of DMSO) were calibrated so that a large excess of water over the DMSO solution were mixed together. The actual ratio was approximately 19/1 so that the initial concentration of superoxide in the aqueous solution was in the range 60-120 μM. […]

[2] = polypropylene admixed 2% by weight, melted at 250° C., extracted with pure water
Method: 0.105 g of Compound 38 was added to 4.9 g of cryoground polypropylene. The mixture was melted at 250° C. and extruded into a strand and a fiber. In this manner, a polypropylene modified with a non-proteinaceous catalyst, 2% by weight, was made. The product strand was cryoground and extracted with pure water.

## Oc1ccccc1CC1C[N]2CC[N]3CC[N]4CC[N]5CC[N]1[Mn]4352([Cl])[Cl] (centres unmarked) [Compound 6]
[1]
  kcat pH 7.4: 6.99
  kcat pH 8.1: 3.83

## [Cl][Mn]1234([Cl])[N]5CC[N]1CC[N]2CC(Cc1ccccc1)[N]3CC[N]4CC5 (centres unmarked) [Compound 2]
[1]
  kcat pH 7.4: 7.21
  kcat pH 8.1: 2.57

## OC[C@@H]1C[N]2[C@@H](CO)C[N]3[C@@H](CO)C[N]4[C@H](CO)C[N]5[C@@H](CO)C[N]1[Mn]4523([Cl])[Cl] [Compound 10]
[1]
  kcat pH 7.4: 2.68
  kcat pH 8.1: 2.68

## C[C@@H]1C[N]2[C@@H](C)C[N]3CC[N]4C[C@H](C)[N]5[C@@H](COc6ccco6)C[N]1[Mn]3425([Cl])[Cl] [Compound 24]
[1]
  kcat pH 7.4: 2.55
  kcat pH 8.1: 2.55

## O=C(OC[C@H]1C[N]2[C@@H](COC(=O)c3ccccc3)C[N]3[C@@H](COC(=O)c4ccccc4)C[N]4[C@@H](COC(=O)c5ccccc5)C[N]5CC[N]1[Mn]5423([Cl])[Cl])c1ccccc1 [Compound 36]
[1]
  kcat pH 7.4: 0.63
  kcat pH 8.1: 0.49

## C[C@H]1C[N]2[C@@H](CCCO)C[N]3[C@@H]4CCCC[C@H]4[N]4C[C@H](CCCO)[N]5CC[N]1[Mn]5243([Cl])[Cl] [Compound 27]
[1]
  kcat pH 7.4: 4.83
  kcat pH 8.1: 2.50

## C[C@H]1C[N]2[C@@H](C)C[N]3[C@@H](CCCNC(=O)CC(CC(=O)O)NC(=O)CNC(=O)c4cccc(NC(=N)N)c4)C[N]4[C@H]5CCCC[C@H]5[N]5CC[N]1[Mn]3524([Cl])[Cl] (some centres unmarked) [Compound 35]
[1]
  kcat pH 7.4: 4.38
  kcat pH 8.1: 2.87

## CCC(=O)OC[C@H]1C[N]2[C@@H]3CCCC[C@H]3[N]3CC[N]4C5CCCCC5[N]5CC[N]1[Mn]5432([Cl])[Cl] (some centres unmarked) [Compound 39]
[1]
  kcat pH 7.4: 3.89
  kcat pH 8.1: 2.32

## N#C[S][Mn]1234([S]C#N)[N]5CC[N]1C1CCCCC1[N]2CC[N]3C1CCCC[C@H]1[N]4CC5 (some centres unmarked) [Compound 22]
[1]
  kcat pH 7.4: 11.40
  kcat pH 8.1: 5.03

## [Cl-].[Cl-].[Mn+2].c1cc2nc(c1)CN[C@@H]1CCCC[C@H]1NCCN[C@@H]1CCCC[C@H]1NC2 [Compound 38, Manganese (II) dichloro{(4R,9R,14R,19R)-3,10,13,20,26-pentaazatetracyclo [20.3.1.04,9.014,19]hexacosa-1(26),22(23),24-triene}]
[2]
  elution of the admixed compound from the cryoground polymer: ~10%
[1]; extracted with pure water from polypropylene strand, confirmed by stopped-flow kinetic analysis and HPLC-UV
  activity of compound extracted from the strand: Active
[1]
  kcat pH 7.4: 1.64
  kcat pH 8.1: 1.19

## C[C@@H]1C[N]2[C@@H](CCCN)C[N]3[C@@H]4CCCC[C@H]4[N]4CC[N]5[C@@H](C)C[N]1[Mn]2435([Cl])[Cl] [Compound 31]
[1]
  kcat pH 7.4: 2.97
  kcat pH 8.1: 2.91

## NCC[C@H]1C[N]2[C@@H](CCN)C[N]3[C@@H]4CCCC[C@H]4[N]4CC[N]5CC[N]1[Mn]5243([Cl])[Cl] [Compound 16]
[1]
  kcat pH 7.4: 2.48
  kcat pH 8.1: 1.97

## CNCCCC[C@@H]1C[N]2CC[N]3CC[N]4CC[N]5[C@@H](CCCCNC)C[N]1[Mn]3425([Cl])[Cl] [Compound 8]
[1]
  kcat pH 7.4: 5.95
  kcat pH 8.1: 5.90

## [Cl][Mn]1234([Cl])[N]5CC[N]1C1CCCCC1[N]2CC[N]3C1CCCCC1[N]4CC5 (centres unmarked) [Compound 17]
[1]
  kcat pH 7.4: 12.60
  kcat pH 8.1: 4.09

## CC(C)(C)SC[C@H]1C[N]2[C@@H]3CCCC[C@H]3[N]3C[C@H](CSC(C)(C)C)[N]4CC[N]5CC[N]1[Mn]5423([Cl])[Cl] [Compound 21]
[1]
  kcat pH 7.4: 2.93
  kcat pH 8.1: 1.29

## C#CCC1C[N]2CC[N]3CC[N]4CC[N]5CC[N]1[Mn]4352([Cl])[Cl] (centres unmarked) [Compound 4]
[1]
  kcat pH 8.1: 1.75

## [Cl-].[Cl-].[NH3+]CCCC[C@@H]1C[N]2[C@@H](CCCC[NH3+])C[N]3[C@@H]4CCCC[C@H]4[N]4CC[N]5CC[N]1[Mn]5243([Cl])[Cl] [Compound 12]
[1]
  kcat pH 7.4: 10.20
  kcat pH 8.1: 5.39

## C[C@@H]1C[N]2[C@@H](C)C[N]3[C@@H](C)C[N]4[C@H](C)C[N]5[C@@H](C)C[N]1[Mn]4523([Cl])[Cl] [Compound 5]
[1]
  kcat pH 7.4: 3.82
  kcat pH 8.1: 3.90

## [Cl][Mn]1234([Cl])[N]5CC[N]1CC[N]2[C@@H](Cc1cnc[nH]1)C[N]3[C@H](Cc1cnc[nH]1)C[N]4CC5 [Compound 7]
[1]
  kcat pH 7.4: 2.00
  kcat pH 8.1: 1.58

## [Cl-].[Cl][Fe]1234([Cl])[N]5CC[N]1C1CCCCC1[N]2CC[N]3C1CCCCC1[N]4CC5 (centres unmarked) [Compound 20]
[1]
  kcat pH 7.4: 3.29
  kcat pH 8.1: 0.93

## Manganese(II) dichloro(4R,9R,11R,14R,19R)-3,10,13,20,26-pentaaza-(2R,21R)-dimethyltetracyclo[20.3.1.0^4,9, 0^14,19]hexacose-1(25),22(26),23-triene [Compound 40]
[1]
  kcat pH 7.4: 90.00
  kcat pH 8.1: 11.00

## CC(C)C(=O)OC[C@@H]1C[N]2[C@@H]3CCCC[C@H]3[N]3CC[N]4C5CCCCC5[N]5CC[N]1[Mn]5432([Cl])[Cl] (some centres unmarked) [Compound 37]
[1]
  kcat pH 7.4: 3.08

## [Cl][Mn]1234([Cl])[N]5CC[N]1CC[N]2CC[N]3CC[N]4CC5 [Compound 1]
[1]
  kcat pH 7.4: 4.13
  kcat pH 8.1: 2.24

## C=CCC1C[N]2CC[N]3CC[N]4CC[N]5CC[N]1[Mn]4352([Cl])[Cl] (centres unmarked) [Compound 13]
[1]
  kcat pH 8.1: 1.63

## OC[C@@H]1C[N]2[C@@H]3CCCC[C@H]3[N]3CC[N]4C5CCCCC5[N]5CC[N]1[Mn]5432([Cl])[Cl] (some centres unmarked) [Compound 26]
[1]
  kcat pH 7.4: 10.12
  kcat pH 8.1: 3.47

## NCCC[C@H]1C[N]2[C@H]3CCCC[C@H]3[N]3CC[N]4[C@H]5CCCC[C@H]5[N]5CC[N]1[Mn]5342([Cl])[Cl] [Compound 14]
[1]
  kcat pH 7.4: 7.58
  kcat pH 8.1: 3.84

## C[C@H](CCCNCCC[C@H]1C[N]2[C@@H]3CCCC[C@H]3[N]3CC[N]4CC[N]5CC[N]1[Mn]5432([Cl])[Cl])[C@H]1CCC2[C@@H]3CC[C@@H]4C[C@H](O)CC[C@]4(C)C3CC[C@@]21C (some centres unmarked) [Compound 15]
[1]
  kcat pH 7.4: 2.41
  kcat pH 8.1: 0.77

## C[C@@H]1C[N]2[C@H]3CCCC[C@H]3[N]3CC[N]4C5CCCCC5[N]5CC[N]1[Mn]5432([Cl])[Cl] (some centres unmarked) [Compound 18]
[1]
  kcat pH 7.4: 15.00
  kcat pH 8.1: 4.00

## COC(=O)C1=C(C(=O)OC)C2OC1C=C2COC[C@H]1C[N]2[C@H](C)C[N]3[C@@H](C)C[N]4CC[N]5[C@H](C)C[N]1[Mn]4523([Cl])[Cl] (some centres unmarked) [Compound 25]
[1]
  kcat pH 7.4: 4.04
  kcat pH 8.1: 2.34

## C[C@@H]1C[N]2[C@@H](C)C[N]3[C@@H]4CCCC[C@H]4[N]4C[C@H](C)[N]5CC[N]1[Mn]4352([Cl])[Cl] [Compound 19]
[1]
  kcat pH 7.4: 8.48
  kcat pH 8.1: 4.08

## CC(=O)OC[C@@H]1C[N]2CC[N]3[C@@H](COC(C)=O)C[N]4[C@H](COC(C)=O)C[N]5[C@@H](COC(C)=O)C[N]1[Mn]2345([Cl])[Cl] [Compound 33]
[1]
  kcat pH 7.4: 7.27
  kcat pH 8.1: 4.08

## CCC(=O)OCC1C[N]2CC[N]3[C@@H](COC(=O)CC)C[N]4[C@@H](COC(=O)CC)C[N]5[C@@H](COC(=O)CC)C[N]1[Mn]2354([Cl])[Cl] (some centres unmarked) [Compound 34]
[1]
  kcat pH 7.4: 2.70
  kcat pH 8.1: 2.78

## C[C@@H]1C[N]2[C@@H](CCCNC(=O)CCC(=O)O)C[N]3[C@@H]4CCCC[C@H]4[N]4CC[N]5[C@@H](C)C[N]1[Mn]2435([Cl])[Cl] [Compound 32]
[1]
  kcat pH 7.4: 1.74
  kcat pH 8.1: 1.43

## OC[C@@H]1C[N]2CC[N]3[C@@H](CO)C[N]4[C@H](CO)C[N]5[C@@H](CO)C[N]1[Mn]2345([Cl])[Cl] [Compound 23]
[1]
  kcat pH 7.4: 6.61
  kcat pH 8.1: 3.47

## FC(F)(F)CC1C[N]2CC[N]3CC[N]4CC[N]5CC[N]1[Mn]4352([Cl])[Cl] (centres unmarked) [Compound 9]
[1]
  kcat pH 7.4: 2.77
  kcat pH 8.1: 1.68

## NCCC[C@H]1C[N]2[C@@H]3CCCC[C@H]3[N]3CC[N]4CC[N]5CC[N]1[Mn]5432([Cl])[Cl] [Compound 11]
[1]
  kcat pH 7.4: 4.79
  kcat pH 8.1: 2.85
